Here are results for 28 compounds from PubChem BioAssay (NCI).

Several values for one entry are separate records, joined by “and”; a condition that tells them apart may be missing. Equal values may be shown once.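 Following 48 hours of exposure in 96-well plates, responses at five concentrations were used to interpolate endpoints linearly. Abbreviation: GI50, concentration required for 50% inhibition of growth. At the TGI there is no net growth.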

For the first experiment, the system named is OVCAR-4 ovarian. As to the kind of experiment: NCI tumour cell line growth inhibition, 48 h.
Turning to `O=C(c1ccc2ccccc2c1)c1c(C(F)(F)F)n([O-])c2cc(Cl)c(Cl)cc2[n+]1=O`, the GI50 is 1.54 µM and the TGI was 3.17 µM.

In turn, `Cc1ccccc1C(C#N)C(=O)C(=O)Nc1nc([N+](=O)[O-])cs1` (stereo not drawn) registered a TGI greater than 100 µM.

`COC(=O)C(c1[nH]nc2ccccc12)C(C(=O)OC)c1[nH]nc2ccccc12` (stereo not drawn) showed a TGI of 53.4 µM.

With `C#CCNC(=O)NC(CCCNC(=O)OCc1ccccc1)C(=O)OCc1ccccc1` (stereo not drawn), the TGI is greater than 100 µM.

On to `COc1ccc2cc1Oc1ccc(cc1)C[C@H]1c3cc(c(OC)cc3CCN1C)Oc1c(OC)c(OC)cc3c1[C@H](C2)N(C)CC3`, for which the GI50 is 12.4 µM; the TGI is 11.1 µM and 28.5 µM.

In turn, `O=c1[nH]c2ccccc2cc1C(Cl)=C(Cl)Cl` registered a TGI greater than 100 µM.

Take `O=[N+]([O-])[C@@H]1C2C=CC(C2)[C@H]1Cl` (stereo partly drawn): the TGI is greater than 100 µM.

Take `CCc1c2c(nc3cc4c(cc13)OCO4)-c1cc3c(c(=O)n1C2)COC(=O)[C@]3(O)CC`: the GI50 is 0.323 µM and 1.27 µM; the TGI was greater than 100 µM.

On to `COC(=O)C(C#N)=C1c2ccccc2Oc2ccccc21`, for which the TGI is greater than 100 µM.

`N#CC1(c2nc3ccccc3o2)C(=O)C(=O)N(C2C3CC4CC(C3)CC2C4)C(=O)C1=O` (stereo not drawn) came in with a TGI greater than 100 µM.

Compound `O=C1NC(c2ccc(O)cc2)C2CCC1C2` (stereo not drawn) showed a TGI greater than 100 µM.

As to `CCOC(=O)C1(CC)CCCCC(=O)N1` (stereo not drawn), the TGI was greater than 100 µM.

In turn, `C=CC1=CSNN1` registered a TGI greater than 100 µM.

With `O=C(C#Cc1c[nH]c(=O)[nH]c1=O)c1ccccc1Cl`, the TGI came out at 31.1 µM.

Consider `COc1ccc(/C=C/C=C(/C#N)C(N)=S)cc1`, for which the GI50 was 27.9 µM and the TGI is greater than 100 µM.

Turning to `COc1ccc(-c2cc(-c3cc(Cl)ccc3Cl)nc3[nH]c(-c4cc(F)c(Cl)cc4Cl)cc(=O)c23)cc1`, the GI50 was greater than 100 µM and the TGI is greater than 100 µM.

The compound `CC(=O)OC1=C2CC3(C)OC(=O)CC(C)(C)C3=CC=C2C=C(C(C)C)C1=O` (stereo not drawn) came in with a TGI of 0.915 µM.

The compound `CCCCCCCCCCCCCCCC(=O)NCC(COP(=O)([O-])OCC[N+](C)(C)C)OCC` (stereo not drawn) registered a TGI of 17.7 µM.

As for `O=c1cc(-c2cccc(F)c2)[nH]c2cc3c(cc12)OCO3`, the TGI is greater than 68.1 µM.

As to `O=C1NC2(CCCC2)C(=O)C12CCCC2`, the TGI is greater than 100 µM.

The compound `O=C1CCCN(c2ccccc2)N1` returned a TGI greater than 100 µM.

`CN(C)/C(=N/C(=S)Nc1ccccc1)SCc1ccccc1` showed a TGI greater than 100 µM.

For `CCOC(=O)C1=C(C)Nc2ccccc2S1`, the TGI is greater than 100 µM.

For the compound `CCOC(=O)CC1=Nc2ccccc2SC1`, the TGI is greater than 100 µM.

Consider `C=CCSC[C@H](NC(=O)COc1ccccc1)C(=O)NC(C(=O)OCc1ccc([N+](=O)[O-])cc1)=C(C)C`, for which the TGI was greater than 100 µM.

A further experiment concerns UACC-257 melanoma. Kind of experiment: NCI tumour cell line growth inhibition, 48 h.
`CCOc1ccc(NC(=O)CC2Sc3ccccc3NC2=O)cc1` (stereo not drawn) showed a TGI greater than 100 µM.

In the case of `Cn1cc(NC(=O)c2cc(NC(=O)CCCCCCCCCCC(=O)Nc3cc(C(=O)Nc4cc(C(=O)NCCC(=N)N)n(C)c4)n(C)c3)cn2C)cc1C(=O)NCCC(=N)N`, the TGI was greater than 100 µM.

In the case of `O=C(c1ccc2ccccc2c1)c1c(C(F)(F)F)n([O-])c2cc(Cl)c(Cl)cc2[n+]1=O`, the GI50 was 1.63 µM and the TGI stood at 3.03 µM.

The compound `Cc1ccccc1C(C#N)C(=O)C(=O)Nc1nc([N+](=O)[O-])cs1` (stereo not drawn) yielded a TGI greater than 100 µM.

The compound `COC(=O)C(c1[nH]nc2ccccc12)C(C(=O)OC)c1[nH]nc2ccccc12` (stereo not drawn) showed a TGI greater than 100 µM.

`C#CCNC(=O)NC(CCCNC(=O)OCc1ccccc1)C(=O)OCc1ccccc1` (stereo not drawn) yielded a TGI of 93.3 µM.

Turning to `COc1ccc2cc1Oc1ccc(cc1)C[C@H]1c3cc(c(OC)cc3CCN1C)Oc1c(OC)c(OC)cc3c1[C@H](C2)N(C)CC3`, the GI50 is 4.06 µM; the TGI is 11.4 µM and 14.6 µM and > 100 µM.

The compound `O=c1[nH]c2ccccc2cc1C(Cl)=C(Cl)Cl` had a TGI greater than 100 µM.

With `O=[N+]([O-])[C@@H]1C2C=CC(C2)[C@H]1Cl` (stereo partly drawn), the TGI was greater than 100 µM.

Regarding `CCc1c2c(nc3cc4c(cc13)OCO4)-c1cc3c(c(=O)n1C2)COC(=O)[C@]3(O)CC`, the GI50 was 0.135 µM and 0.194 µM; the TGI is 2.04 µM and 2.71 µM.

Take `COC(=O)C(C#N)=C1c2ccccc2Oc2ccccc21`: the TGI is greater than 100 µM.

In turn, `N#CC1(c2nc3ccccc3o2)C(=O)C(=O)N(C2C3CC4CC(C3)CC2C4)C(=O)C1=O` (stereo not drawn) showed a TGI greater than 100 µM.

`O=C1NC(c2ccc(O)cc2)C2CCC1C2` (stereo not drawn) had a TGI greater than 100 µM.

The compound `C=CC1=CSNN1` yielded a TGI greater than 100 µM.

`O=C(C#Cc1c[nH]c(=O)[nH]c1=O)c1ccccc1Cl` came in with a TGI of 27.9 µM.

Regarding `COc1ccc(/C=C/C=C(/C#N)C(N)=S)cc1`, the GI50 was 20.4 µM and the TGI is 41.4 µM.

On to `COc1ccc(-c2cc(-c3cc(Cl)ccc3Cl)nc3[nH]c(-c4cc(F)c(Cl)cc4Cl)cc(=O)c23)cc1`, for which the GI50 is 21 µM and the TGI is greater than 100 µM.

As to `CC(=O)OC1=C2CC3(C)OC(=O)CC(C)(C)C3=CC=C2C=C(C(C)C)C1=O` (stereo not drawn), the TGI is 1.1 µM.

Turning to `CCCCCCCCCCCCCCCC(=O)NCC(COP(=O)([O-])OCC[N+](C)(C)C)OCC` (stereo not drawn), the TGI was 30.4 µM.

In turn, `O=c1cc(-c2cccc(F)c2)[nH]c2cc3c(cc12)OCO3` registered a TGI greater than 100 µM.

On to `COC(=O)C1OC(O[C@H]2CCC3(C)C(CCC4(C)C3CC=C3C5CC(C)(C)CCC5(C(=O)O)CC[C@]34C)C2(C)C)C(O)C(OC2OC(CO)C(O)C(O)C2O)C1O` (stereo partly drawn), for which the GI50 was 6.89 µM and the TGI stood at 16.1 µM.

In turn, `O=C1NC2(CCCC2)C(=O)C12CCCC2` returned a TGI greater than 100 µM.

The compound `O=C1CCCN(c2ccccc2)N1` gave a TGI greater than 100 µM.

Compound `CN(C)/C(=N/C(=S)Nc1ccccc1)SCc1ccccc1` displayed a TGI greater than 100 µM.

Regarding `CCOC(=O)C1=C(C)Nc2ccccc2S1`, the TGI was greater than 100 µM.

In turn, `CCOC(=O)CC1=Nc2ccccc2SC1` gave a TGI greater than 100 µM.

In turn, `C=CCSC[C@H](NC(=O)COc1ccccc1)C(=O)NC(C(=O)OCc1ccc([N+](=O)[O-])cc1)=C(C)C` registered a TGI greater than 100 µM.
